pEC50, pIC50: −log10 of the molar value.
Legend:
[1] = target: T1, C-C chemokine receptor type 1 (Homo sapiens, UniProt P32246); assay: Displacement of [125I]MIP-1alpha from CCR1 in human THP1 cells; type: cell-based, THP-1
T1 sequence (P32246 whole entry): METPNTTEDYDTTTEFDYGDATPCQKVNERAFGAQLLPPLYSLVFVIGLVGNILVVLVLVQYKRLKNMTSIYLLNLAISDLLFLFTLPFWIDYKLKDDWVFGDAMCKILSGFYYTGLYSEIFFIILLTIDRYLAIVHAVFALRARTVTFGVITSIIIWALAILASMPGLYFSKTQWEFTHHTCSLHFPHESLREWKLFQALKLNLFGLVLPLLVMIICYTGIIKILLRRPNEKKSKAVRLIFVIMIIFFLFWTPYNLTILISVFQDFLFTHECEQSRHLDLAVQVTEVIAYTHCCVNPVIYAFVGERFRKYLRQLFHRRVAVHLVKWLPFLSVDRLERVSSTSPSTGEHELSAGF

[2] = target: T2, Nuclear receptor subfamily 1 group I member 2 (Homo sapiens, UniProt O75469); assay: Transactivation of human full-length PXR transfected in human HepG2 cells after 24 hrs by luciferase reporter gene assay; type: cell-based; conditions: for EC20: human, hepg2, 24 h
T2 sequence (O75469 whole entry): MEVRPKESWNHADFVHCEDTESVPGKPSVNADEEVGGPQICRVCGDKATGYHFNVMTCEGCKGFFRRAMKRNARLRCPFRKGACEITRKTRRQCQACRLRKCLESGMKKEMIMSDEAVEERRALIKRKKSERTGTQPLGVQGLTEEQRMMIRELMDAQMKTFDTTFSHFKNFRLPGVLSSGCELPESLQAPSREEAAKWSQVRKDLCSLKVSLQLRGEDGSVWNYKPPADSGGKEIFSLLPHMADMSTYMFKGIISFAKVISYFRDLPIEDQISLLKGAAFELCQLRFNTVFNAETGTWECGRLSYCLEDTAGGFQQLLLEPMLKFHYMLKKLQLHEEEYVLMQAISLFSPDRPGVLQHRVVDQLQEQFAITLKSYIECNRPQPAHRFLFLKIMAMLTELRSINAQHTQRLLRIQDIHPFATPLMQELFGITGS

[3] = Metabolic stability in human liver microsomes assessed as compound remaining at 0.5 uM after 60 mins by UV-LC/MS analysis; type: ADME; conditions: read-out: Stability
[4] = Metabolic stability in rat liver microsomes assessed as compound remaining at 0.5 uM after 60 mins by UV-LC/MS analysis; type: ADME; conditions: read-out: Stability
[5] = Metabolic stability in mouse liver microsomes assessed as compound remaining at 0.5 uM after 60 mins by UV-LC/MS analysis; type: ADME; conditions: read-out: Stability
[6] = Metabolic stability in human liver microsomes assessed as compound remaining at 3 uM after 60 mins by UV-LC/MS analysis; type: ADME; conditions: read-out: Stability
[7] = Metabolic stability in rat liver microsomes assessed as compound remaining at 3 uM after 60 mins by UV-LC/MS analysis; type: ADME; conditions: read-out: Stability
[8] = Metabolic stability in mouse liver microsomes assessed as compound remaining at 3 uM after 60 mins by UV-LC/MS analysis; type: ADME; conditions: read-out: Stability

SMILES | pIC50 [1] | pEC50 [2] | remaining at 1 h, 0.5 µM [3] | remaining at 1 h, 0.5 µM [4] | remaining at 1 h, 0.5 µM [5] | remaining at 1 h, 3 µM [6] | remaining at 1 h, 3 µM [7] | remaining at 1 h, 3 µM [8] | EC20 [2]
CC(C)[C@@H](NC(=O)C[C@H](C)O)C(=O)N1CC[C@](O)(c2ccc(Cl)cc2)C(C)(C)C1 | 7.96 | – | – | – | – | – | – | – | –
CC(C)[C@@H](NC(=O)CCC(C)(C)O)C(=O)N1CC[C@](O)(c2ccc(Cl)cc2)C(C)(C)C1 | 8.70 | 4.60 | 91% | 35% | 74% | – | – | – | –
CC(C)[C@@H](NC(=O)NC[C@H](C)O)C(=O)N1CC[C@](O)(c2ccc(Cl)cc2)C(C)(C)C1 | 8.70 | < 4.60 | 88% | 79% | 95% | – | – | – | –
CC[C@H](C)NC(=O)N[C@@H](C(=O)N1CC[C@](O)(c2ccc(Cl)cc2)C(C)(C)C1)C(C)C | 8.70 | – | – | – | – | 65% | 89% | 87% | 8700 nM
CC(C)[C@@H](NC(=O)C[C@@H](C)O)C(=O)N1CC[C@](O)(c2ccc(Cl)cc2)C(C)(C)C1 | 8.70 | 5.11 | – | – | – | 87% | 79% | 85% | –
CC(C)[C@@H](NC(=O)Nc1ccccc1)C(=O)N1CC[C@](O)(c2ccc(Cl)cc2)C(C)(C)C1 | 7.70 | – | – | – | – | – | – | – | –
CC(C)[C@@H](NC(=O)NCc1ccccc1)C(=O)N1CC[C@](O)(c2ccc(Cl)cc2)C(C)(C)C1 | 9.00 | – | – | – | – | 3% | 1% | 2% | 2200 nM
CC(C)[C@@H](NC(=O)CC(C)(C)O)C(=O)N1CC[C@](O)(c2ccc(Cl)cc2)C(C)(C)C1 | 8.52 | 5.64 | – | – | – | 100% | 84% | 100% | –

Second part, the molecule after the results:

pIC50 [1] | pEC50 [2] | remaining at 1 h, 0.5 µM [3] | remaining at 1 h, 0.5 µM [4] | remaining at 1 h, 0.5 µM [5] | remaining at 1 h, 3 µM [6] | remaining at 1 h, 3 µM [7] | remaining at 1 h, 3 µM [8] | EC20 [2] | SMILES
8.52 | 4.72 | – | – | – | 92% | 83% | 100% | – | CC(C)[C@@H](NC(=O)N[C@H]1CC[C@@H](O)C1)C(=O)N1CC[C@](O)(c2ccc(Cl)cc2)C(C)(C)C1
8.52 | 5.24 | – | – | – | 99% | 96% | 100% | – | CC(C)[C@@H](NC(=O)N[C@H]1CC[C@H](O)C1)C(=O)N1CC[C@](O)(c2ccc(Cl)cc2)C(C)(C)C1
8.40 | < 4.30 | – | – | – | 100% | 84% | 100% | – | CC(C)[C@@H](NC(=O)N[C@@H]1CC[C@@H](O)C1)C(=O)N1CC[C@](O)(c2ccc(Cl)cc2)C(C)(C)C1
8.70 | – | – | – | – | 77% | 57% | 68% | 7100 nM | CC(C)[C@@H](NC(=O)NC1CCCC1)C(=O)N1CC[C@](O)(c2ccc(Cl)cc2)C(C)(C)C1
8.70 | < 4.30 | – | – | – | 76% | 75% | 86% | – | CC(C)[C@@H](NC(=O)N[C@@H]1CC[C@H](O)C1)C(=O)N1CC[C@](O)(c2ccc(Cl)cc2)C(C)(C)C1
8.52 | – | – | – | – | 59% | 85% | 72% | 5200 nM | CC[C@@H](C)NC(=O)N[C@@H](C(=O)N1CC[C@](O)(c2ccc(Cl)cc2)C(C)(C)C1)C(C)C
8.70 | < 4.60 | 88% | 78% | 86% | – | – | – | – | CC(C)[C@@H](NC(=O)NC[C@@H](C)O)C(=O)N1CC[C@](O)(c2ccc(Cl)cc2)C(C)(C)C1
8.05 | – | – | – | – | 2% | 11% | 19% | 800 nM | CC(C)[C@@H](NC(=O)N1CCCC1)C(=O)N1CC[C@](O)(c2ccc(Cl)cc2)C(C)(C)C1
